Measurements: US20040220403A1, “1-(2-Methoxybenzyl)-3-benzhydrylpiperazines as tachykinin anatgonists” (priority 2001, published 2004)

Tested on: Emesis in the Dog
Test: Emesis in the Dog (apomorphine-induced retching and vomiting)
Format: in vivo
Conditions: adult female dogs; test compound i.v. at the dose of 1.0 mg/kg; 5 min later subcutaneous apomorphine (0.1 mg/0.5 ml/kg); observed for the next 60 min
Experimental: Individually housed adult female dogs (8 to 15 kg) were given an i.v. injection of a solution containing a test compound. 5 Min later the emetic responses (retching and vomiting) were induced by administration of subcutaneous apomorphine (0.1 mg/0.5 ml/kg) and observed for the next 60 min. The timing and number of retches and vomits observed were recorded for each animal. An individual animal was tested with at least 10 days between experiments.

SMILES | inhibition rate of emesis in the dog [%]
COc1ccc(-n2nnnc2C(F)(F)F)c(OC)c1CN1C[C@@H]2CN(C(=O)N(C)C)CCN2[C@H](C(c2ccccc2)c2ccccc2)C1.Cl.Cl [52-(5), (6R,9aR)-6-Benzhydryl-8-[2,6-dimethoxy-3-[5-(trifluoromethyl)-1H-tetrazol-1-yl]benzyl]-N,N-dimethyloctahydro-2H-pyrazino[1,2-a]pyrazine-2-carboxamide dihydrochloride] | 100
COc1ccc(-n2nnnc2C(F)(F)F)c(OC)c1CN1C[C@@H]2C[C@@H](NC(C)=O)CN2[C@H](C(c2ccccc2)c2ccccc2)C1.Cl.Cl [52-(14), N-[(4R, 7R, 8aS)-4-Benzhydryl-2-[2,6-dimethoxy-3-[5-(trifluoromethyl)-1H-tetrazol-1-yl]benzyl]octahydropyrrolo-[1,2-a]pyrazin-7-yl]acetamide dihydrochloride] | 100
COc1ccc(-n2nnnc2C(F)(F)F)c(OC)c1CN1CCN(Cc2cnn(C)c2)[C@H](C(c2ccccc2)c2ccccc2)C1.Cl.Cl [57-(1), (2R)-2-Benzhydryl-4-[2,6-dimethoxy-3-[5-(trifluoromethyl)-1H-tetrazol-1-yl]benzyl]-1-[(1-methyl-1H-pyrazol-4-yl)methyl]piperazine dihydrochloride] | 100

Tested on: not given
Test: not given
Conditions: not given

melting point | SMILES
138 to 153 °C | COc1ccc(-n2nnnc2C(F)(F)F)cc1CN1C[C@@H]2CN(C(=O)COC(C)=O)CCN2[C@H](C(c2ccccc2)c2ccccc2)C1.Cl.Cl
143 to 148 °C | COc1ccc(-n2nnnc2C(F)(F)F)cc1CN1C[C@@H]2CN(C(=O)C(C)(C)OC(C)=O)CCN2[C@H](C(c2ccccc2)c2ccccc2)C1.Cl.Cl
169 to 174.5 °C | COc1ccc(-n2nnnc2C(F)(F)F)cc1CN1C[C@@H]2CN(C(=O)C3CCCCC3)CCN2[C@H](C(c2ccccc2)c2ccccc2)C1.Cl.Cl
197 to 200 °C | COc1ccc(-n2nnnc2CC(F)(F)F)cc1CN1C[C@@H]2CN(C(=O)c3cccnc3)CCN2[C@H](C(c2ccccc2)c2ccccc2)C1.Cl.Cl.Cl
140 to 159 °C | COc1ccc(-n2nnnc2C(F)(F)F)cc1CN1C[C@@H]2CN(C(=O)CO)CCN2[C@H](C(c2ccccc2)c2ccccc2)C1.Cl.Cl
147 to 154 °C | COc1ccc(-n2nnnc2C(F)(F)F)cc1CN1C[C@@H]2CN(C(=O)CCO)CCN2[C@H](C(c2ccccc2)c2ccccc2)C1.Cl.Cl
150 to 158 °C | COc1ccc(-n2nnnc2C(F)(F)F)cc1CN1C[C@@H]2CN(C(=O)[C@H](C)O)CCN2[C@H](C(c2ccccc2)c2ccccc2)C1.Cl.Cl
170 to 178 °C (dec.) | COc1ccc(-n2nnnc2C(F)(F)F)cc1CN1C[C@@H]2CN(C(=O)C3CCCC3)CCN2[C@H](C(c2ccccc2)c2ccccc2)C1.Cl.Cl
132 to 135 °C | COCCC(=O)N1CCN2[C@H](CN(Cc3cc(-n4nnnc4C(F)(F)F)ccc3OC)C[C@H]2C(c2ccccc2)c2ccccc2)C1.Cl.Cl
155 to 160 °C | COc1ccc(-n2nnnc2C(F)(F)F)cc1CN1C[C@@H]2CN(C(=O)CC(F)(F)F)CCN2[C@H](C(c2ccccc2)c2ccccc2)C1.Cl.Cl
158 to 164 °C | COc1ccc(-n2nnnc2C(F)(F)F)cc1CN1C[C@@H]2CN(C(=O)N(C)C)CCN2[C@H](C(c2ccccc2)c2ccccc2)C1.Cl.Cl
160 to 170 °C | CNC(=O)N1CCN2[C@H](CN(Cc3cc(-n4nnnc4C(F)(F)F)ccc3OC)C[C@H]2C(c2ccccc2)c2ccccc2)C1.Cl.Cl
165 to 190 °C | COc1ccc(-n2nnnc2C(F)(F)F)cc1CN1C[C@@H]2CN(C(N)=O)CCN2[C@H](C(c2ccccc2)c2ccccc2)C1.Cl.Cl
184 to 187 °C | COc1ccc(-n2nnnc2C(F)(F)F)cc1CN1C[C@@H]2CN(C3CCC3)CCN2[C@H](C(c2ccccc2)c2ccccc2)C1.Cl.Cl.Cl
175 to 178 °C | COc1ccc(-n2nnnc2C(F)(F)F)cc1CN1C[C@@H]2CN(c3cccnc3)CCN2[C@H](C(c2ccccc2)c2ccccc2)C1.Cl.Cl.Cl
174 to 176 °C | COc1ccc(-n2nnnc2C(F)(F)F)cc1CN1C[C@@H]2CN(S(N)(=O)=O)CCN2[C@H](C(c2ccccc2)c2ccccc2)C1.Cl.Cl
175 to 179 °C | COc1ccc(-n2nnnc2C(F)(F)F)cc1CN1C[C@@H]2CN(CC(C)=O)CCN2[C@H](C(c2ccccc2)c2ccccc2)C1.Cl.Cl.Cl
155 to 168 °C | COc1ccc(-n2nnnc2C(F)(F)F)cc1CN1C[C@@H]2CN(C(C=O)C(=O)N(C)C)CCN2[C@H](C(c2ccccc2)c2ccccc2)C1.Cl.Cl (stereo partly shown)
148 to 152 °C | COc1ccc(-n2nnnc2C(F)(F)F)cc1CN1C[C@@H]2CN(S(=O)(=O)N(C)C)CCN2[C@H](C(c2ccccc2)c2ccccc2)C1.Cl.Cl
162 to 168 °C | COc1ccc(-n2nnnc2C(F)(F)F)cc1CN1C[C@@H]2CN(S(=O)(=O)CS(C)(=O)=O)CCN2[C@H](C(c2ccccc2)c2ccccc2)C1.Cl.Cl
128 to 132 °C | COc1ccc(-n2nnnc2C(F)(F)F)c(OC)c1CN1C[C@@H]2CN(C(=O)CO)CCN2[C@H](C(c2ccccc2)c2ccccc2)C1.Cl.Cl
155 to 159 °C | COc1ccc(-n2nnnc2C(F)(F)F)cc1CN1C[C@@H]2CC(NC(=O)CO)CN2[C@H](C(c2ccccc2)c2ccccc2)C1.Cl.Cl (stereo partly shown)
